{"source": "paper PMC9851200", "about": "“Multiparameter phenotypic screening for endogenous TFEB and TFE3 translocation identifies novel chemical series modulating lysosome function” (Autophagy, 2022)", "origin": "cited, not measured here", "set-up_in_all_cases": "method as in original PKIS2 published data", "key": {"[1]": {"target": "T1, kinases (KINOMEscan panel) (Homo sapiens, UniProt O15530)", "T1 sequence (O15530 1-556)": "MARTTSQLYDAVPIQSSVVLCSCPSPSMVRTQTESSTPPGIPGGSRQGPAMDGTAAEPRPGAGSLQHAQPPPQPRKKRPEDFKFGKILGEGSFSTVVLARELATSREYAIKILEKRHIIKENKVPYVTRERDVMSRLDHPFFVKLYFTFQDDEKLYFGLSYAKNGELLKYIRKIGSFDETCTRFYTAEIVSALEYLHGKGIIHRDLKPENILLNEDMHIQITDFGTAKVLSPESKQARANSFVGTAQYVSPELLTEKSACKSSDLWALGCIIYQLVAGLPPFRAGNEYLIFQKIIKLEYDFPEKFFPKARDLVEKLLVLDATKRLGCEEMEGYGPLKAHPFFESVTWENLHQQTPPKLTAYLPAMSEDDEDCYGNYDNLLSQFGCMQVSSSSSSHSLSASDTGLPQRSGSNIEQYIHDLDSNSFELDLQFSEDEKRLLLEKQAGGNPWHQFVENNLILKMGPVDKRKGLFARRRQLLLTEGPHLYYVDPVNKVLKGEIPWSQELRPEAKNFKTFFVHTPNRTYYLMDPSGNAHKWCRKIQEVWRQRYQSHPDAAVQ", "conditions": "Published KINOMEscan; ref original PKIS2 published data; cited from earlier work"}, "[2]": {"target": "T2, kinases (KINOMEscan panel) (Homo sapiens, UniProt P21709)", "T2 sequence (P21709 26-976)": "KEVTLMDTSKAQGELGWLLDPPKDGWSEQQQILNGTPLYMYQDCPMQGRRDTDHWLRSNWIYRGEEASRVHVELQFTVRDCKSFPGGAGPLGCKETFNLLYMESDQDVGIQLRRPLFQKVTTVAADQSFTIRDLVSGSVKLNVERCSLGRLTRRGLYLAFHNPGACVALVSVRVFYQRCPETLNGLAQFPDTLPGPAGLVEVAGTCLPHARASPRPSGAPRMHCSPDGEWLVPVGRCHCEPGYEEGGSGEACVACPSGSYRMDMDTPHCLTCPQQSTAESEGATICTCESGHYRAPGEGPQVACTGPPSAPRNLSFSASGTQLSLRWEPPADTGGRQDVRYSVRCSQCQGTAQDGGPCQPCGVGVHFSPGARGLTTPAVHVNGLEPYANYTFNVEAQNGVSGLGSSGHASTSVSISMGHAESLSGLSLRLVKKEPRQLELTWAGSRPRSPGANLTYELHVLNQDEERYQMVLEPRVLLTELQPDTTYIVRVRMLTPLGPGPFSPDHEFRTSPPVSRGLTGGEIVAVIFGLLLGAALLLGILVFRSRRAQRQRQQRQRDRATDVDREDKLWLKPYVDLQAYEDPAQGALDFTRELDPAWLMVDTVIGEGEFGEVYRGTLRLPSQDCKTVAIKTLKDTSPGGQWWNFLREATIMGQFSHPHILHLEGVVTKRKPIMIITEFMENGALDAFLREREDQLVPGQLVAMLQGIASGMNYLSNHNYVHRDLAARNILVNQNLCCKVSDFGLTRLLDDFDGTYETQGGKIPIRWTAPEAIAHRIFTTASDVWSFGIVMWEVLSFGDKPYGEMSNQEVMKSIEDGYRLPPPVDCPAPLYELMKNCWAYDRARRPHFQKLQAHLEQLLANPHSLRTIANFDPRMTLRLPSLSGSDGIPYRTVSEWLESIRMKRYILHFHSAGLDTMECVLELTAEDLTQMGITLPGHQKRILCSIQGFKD", "conditions": "EPHA1; Published KINOMEscan; ref original PKIS2 published data; cited from earlier work"}, "[3]": {"target": "T3, kinases (KINOMEscan panel) (Homo sapiens, UniProt P54760)", "T3 sequence (P54760 16-987)": "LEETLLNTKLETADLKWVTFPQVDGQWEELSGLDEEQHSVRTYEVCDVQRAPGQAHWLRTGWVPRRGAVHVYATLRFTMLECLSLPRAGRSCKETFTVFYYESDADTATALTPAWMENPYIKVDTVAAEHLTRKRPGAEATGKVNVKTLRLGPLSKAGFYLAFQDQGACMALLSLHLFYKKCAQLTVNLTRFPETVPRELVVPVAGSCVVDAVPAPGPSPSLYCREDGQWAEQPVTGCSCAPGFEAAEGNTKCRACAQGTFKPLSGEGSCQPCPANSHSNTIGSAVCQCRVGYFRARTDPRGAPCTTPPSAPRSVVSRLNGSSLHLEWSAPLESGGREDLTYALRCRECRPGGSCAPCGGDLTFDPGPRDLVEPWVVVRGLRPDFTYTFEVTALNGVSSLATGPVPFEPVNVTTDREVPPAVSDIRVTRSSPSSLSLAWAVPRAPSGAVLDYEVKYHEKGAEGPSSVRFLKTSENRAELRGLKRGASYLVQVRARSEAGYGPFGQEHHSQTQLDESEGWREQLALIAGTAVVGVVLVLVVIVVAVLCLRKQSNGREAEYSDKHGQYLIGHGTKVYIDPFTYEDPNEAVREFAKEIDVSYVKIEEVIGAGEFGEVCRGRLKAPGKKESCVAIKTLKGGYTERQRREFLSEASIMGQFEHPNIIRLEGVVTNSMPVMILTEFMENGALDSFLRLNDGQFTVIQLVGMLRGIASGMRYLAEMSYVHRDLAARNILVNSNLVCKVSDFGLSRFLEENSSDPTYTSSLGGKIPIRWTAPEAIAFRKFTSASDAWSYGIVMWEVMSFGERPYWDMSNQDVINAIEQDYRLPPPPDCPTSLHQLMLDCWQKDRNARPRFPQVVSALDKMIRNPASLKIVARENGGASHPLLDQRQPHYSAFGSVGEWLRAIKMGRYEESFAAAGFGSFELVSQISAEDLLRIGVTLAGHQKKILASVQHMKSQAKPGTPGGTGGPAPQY", "conditions": "EPHB4; Published KINOMEscan; ref original PKIS2 published data; cited from earlier work"}, "[4]": {"target": "kinases (KINOMEscan panel) (Homo sapiens, UniProt P00533)", "sequence (P00533 25-1210)": "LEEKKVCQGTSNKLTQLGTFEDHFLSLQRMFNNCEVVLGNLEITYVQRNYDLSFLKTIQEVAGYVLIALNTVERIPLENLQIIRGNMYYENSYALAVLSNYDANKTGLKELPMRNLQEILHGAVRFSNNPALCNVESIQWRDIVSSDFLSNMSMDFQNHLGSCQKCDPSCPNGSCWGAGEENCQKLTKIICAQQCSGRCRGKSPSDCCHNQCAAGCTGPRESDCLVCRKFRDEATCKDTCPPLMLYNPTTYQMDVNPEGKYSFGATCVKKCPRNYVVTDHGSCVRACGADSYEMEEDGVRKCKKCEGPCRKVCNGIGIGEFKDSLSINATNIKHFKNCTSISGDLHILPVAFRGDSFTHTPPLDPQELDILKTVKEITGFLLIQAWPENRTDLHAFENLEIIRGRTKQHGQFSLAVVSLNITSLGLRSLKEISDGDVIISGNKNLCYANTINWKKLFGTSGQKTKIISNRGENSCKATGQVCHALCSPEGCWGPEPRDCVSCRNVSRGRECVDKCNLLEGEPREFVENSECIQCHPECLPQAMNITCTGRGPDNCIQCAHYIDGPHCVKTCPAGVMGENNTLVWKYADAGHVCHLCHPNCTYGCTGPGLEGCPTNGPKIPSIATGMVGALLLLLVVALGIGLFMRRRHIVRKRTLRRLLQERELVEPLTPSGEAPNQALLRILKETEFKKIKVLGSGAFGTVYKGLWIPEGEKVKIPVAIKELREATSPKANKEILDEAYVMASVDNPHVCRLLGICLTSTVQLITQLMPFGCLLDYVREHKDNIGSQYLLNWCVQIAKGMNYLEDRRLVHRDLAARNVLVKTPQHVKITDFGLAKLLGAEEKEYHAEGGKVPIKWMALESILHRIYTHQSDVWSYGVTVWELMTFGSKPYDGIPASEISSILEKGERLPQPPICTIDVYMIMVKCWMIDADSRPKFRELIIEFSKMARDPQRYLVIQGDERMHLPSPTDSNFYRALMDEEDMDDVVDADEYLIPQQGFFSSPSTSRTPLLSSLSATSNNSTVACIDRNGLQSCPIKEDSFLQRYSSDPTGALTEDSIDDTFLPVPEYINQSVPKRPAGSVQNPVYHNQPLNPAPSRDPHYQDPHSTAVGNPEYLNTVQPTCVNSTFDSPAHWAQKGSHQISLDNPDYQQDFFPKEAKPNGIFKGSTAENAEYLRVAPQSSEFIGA", "conditions": "kinase EGFR; Published KINOMEscan; ref original PKIS2 published data; cited from earlier work"}, "[5]": {"target": "kinases (KINOMEscan panel) (Homo sapiens, UniProt P50613)", "sequence (P50613 whole entry)": "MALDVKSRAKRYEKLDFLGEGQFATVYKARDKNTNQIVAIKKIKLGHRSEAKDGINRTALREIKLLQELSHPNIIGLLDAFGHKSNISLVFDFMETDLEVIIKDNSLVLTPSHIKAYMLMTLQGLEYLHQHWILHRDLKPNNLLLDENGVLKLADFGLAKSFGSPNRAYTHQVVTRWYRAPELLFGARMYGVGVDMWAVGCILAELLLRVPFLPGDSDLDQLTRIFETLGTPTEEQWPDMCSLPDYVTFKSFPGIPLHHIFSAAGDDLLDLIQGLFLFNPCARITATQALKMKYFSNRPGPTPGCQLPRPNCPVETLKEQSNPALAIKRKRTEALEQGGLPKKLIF", "conditions": "kinase CDK7; Published KINOMEscan; ref original PKIS2 published data; cited from earlier work"}, "[6]": {"target": "kinases (KINOMEscan panel) (Homo sapiens, UniProt P42685)", "sequence (P42685 whole entry)": "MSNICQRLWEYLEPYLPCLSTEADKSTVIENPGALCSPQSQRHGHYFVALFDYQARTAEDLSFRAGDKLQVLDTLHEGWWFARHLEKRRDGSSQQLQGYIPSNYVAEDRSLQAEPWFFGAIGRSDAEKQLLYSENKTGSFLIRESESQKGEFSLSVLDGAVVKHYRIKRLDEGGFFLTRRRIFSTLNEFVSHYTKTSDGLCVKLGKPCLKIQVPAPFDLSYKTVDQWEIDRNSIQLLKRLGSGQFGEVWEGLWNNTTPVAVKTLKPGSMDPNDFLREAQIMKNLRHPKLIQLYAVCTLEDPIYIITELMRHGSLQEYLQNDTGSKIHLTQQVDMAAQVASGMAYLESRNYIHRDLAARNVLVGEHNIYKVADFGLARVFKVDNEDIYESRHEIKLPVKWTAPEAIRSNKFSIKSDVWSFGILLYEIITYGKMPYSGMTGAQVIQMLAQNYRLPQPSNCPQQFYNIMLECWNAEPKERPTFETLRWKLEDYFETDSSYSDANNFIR", "conditions": "kinase FRK; Published KINOMEscan; ref original PKIS2 published data; cited from earlier work"}}, "data": [{"molecule": "Cc1cccc(-c2nc(Nc3ccncc3)c3ccccc3n2)n1", "note": "[NK215]", "values": [{"measurement": "KINOMEscan PDPK1", "setting": "[1]", "result": 24}, {"measurement": "KINOMEscan EPHA1", "setting": "[2]", "result": 23}, {"measurement": "KINOMEscan EPHB4", "setting": "[3]", "result": 26}, {"measurement": "KINOMEscan EGFR", "setting": "[4]", "result": 6}, {"measurement": "KINOMEscan CDK7", "setting": "[5]", "result": 0}, {"measurement": "KINOMEscan FRK", "setting": "[6]", "result": 15}]}]}
